Publication PMC11091976, “Shorter Peptide Nucleic Acid Probes Improve Affibody-Mediated Peptide Nucleic Acid-Based Pretargeting” (ACS Pharmacology & Translational Science, 2024)

Key:
[1] = tested on: SKOV-3 xenografts; assay: Biodistribution with preinjection of primary agent (pretargeting); parameters: species or system BALB/C nu/nu mice; conditions: mouse, in vivo
Description: Biodistribution measurements of all radiolabeled PNA-based probes indicated rapid clearance from the blood as well as from other organs and tissues, which is a crucial requirement for the success of in vivo pretargeting strategies.
Animal studies were planned in agreement with EU Directive 2010/63/EU for animal experiments and Swedish national legislation concerning the protection of laboratory animals and were approved by the Ethics Committee for Animal Research in Uppsala, Sweden (animal permission C4/16). HER2-positive xenografts were implanted by subcutaneous injection of 10^7 SKOV-3 cells in the right hind legs of female BALB/C nu/nu mice. Three weeks after implantation, mice were randomized into 8 groups, with 4 mice in each group. At the time of the experiment, the average animal weight was 20 ± 1 g. The average tumor weight was 0.26 ± 0.14 g. The mice were euthanized at predetermined time points by overdose of Ketamine/Xylazine anesthesia, followed by heart puncture. The organs of interest such as blood, lung, liver, spleen, kidney, muscle, bone, and tumor were collected, weighed, and subsequently their radioactivity was measured. Organs and tumor uptake were calculated as the percentage of the injected dose per gram of the sample (%ID/g). […]

[2] = target: Z-HP9; assay: SPR off-rate screening (single-cycle kinetics), immobilized Z-HP9; type: binding; conditions: primary probe HP9 (immobilized Z-HP9), 25 °C, PBS-T pH 7.4, 120 nM HP16/HP20 or 362 nM HP21/HP19, dissociation 150 min, 1:1 model, duplicates
Method: The stability of new pretargeting probe combinations was assessed using SPR, and duplex melting temperatures were measured with UV–vis spectroscopy. In SPR, a high concentration of the secondary probe was injected over immobilized primary agents, and the dissociation of the hybridized complexes was monitored over 150 min (see Figures 3A, S22, and Table 2).
We utilized SPR on a Biacore T200 instrument (Cytiva) to examine how secondary PNA probes (6-mer HP19, 7-mer HP21, 8-mer HP20, and 9-mer HP16) bind to primary agents. These experiments were conducted using dextran-coated CM5 sensor chips and PBS-T buffer at pH 7.4. The ligands were immobilized through a standard EDC/NHS coupling method, and the chip surface was sealed with ethanolamine. A reference surface with no primary agent was also included.
For ranking the off-rate (kd) of the secondary probes, we employed single-cycle kinetics (SCK) at 25 °C with a flow rate of 50 μL/min. […] Secondary PNA probes were injected at various concentrations, and dissociation was monitored for 10,000 s. To regenerate the chip surface, we used two 30 s injections of 10 mM glycine-HCl, pH 1.5.
All SPR experiments were performed in duplicate, and data analysis was conducted using the Biacore T200 Evaluation software version 2.0 with a 1:1 binding model.
Figure S22: Representative SPR sensorgrams of the dissociation phase of HP16 (9-mer), HP20 (8-mer), HP21 (7-mer) and HP19 […]
After injection with the secondary probe
(120 nM of HP16 and HP20 or 362 nM of HP21 and HP19) the dissociation of the formed complex was followed for 150 minutes. All experiments were done in duplicates, and the data presented is double-referenced (reference channel and buffer injection are subtracted).
(1 picture or pasted object on this page, not shown here)

[3] = tested on: HP15; assay: UV melting of PNA:PNA duplex with primary probe HP15; type: physicochemical; conditions: UV 260 nm, 20-95 °C at 1 °C/min, 5 μM each probe, 10 mM phosphate buffer, 10 mM KCl, pH 7.4
Method: The melting temperatures of secondary probes after duplex formation with primary probes were also measured by monitoring the absorbance at 260 nm as a function of temperature (see Figure S23). All probe pairs had melting temperatures well above 37 °C (body temperature) and ranged from 51 °C for the HP6:HP19 pair with 6 complementary bases to 82 °C for the previously studied HP15:HP18 pair with 15 complementary bases (see Figure 3B and Table 2). […] This secondary structure is typically adopted by antiparallel and L-amino acid-modified PNA–PNA duplexes at neutral pH.[49]
Figure S23: Normalized temperature melting profiles from 20–95°C for different primary and secondary probe pairs. UV melting curves at 260 nm. (A) HP15 (15-mer) toward secondary 15-, 12- and 9-mers. (B) HP12 (12-mer) toward secondary 12-, 9-, 8-, 7- and 6-mers. (C) HP9 (9-mer) toward secondary 9-, 8-, 7- and 6-mers. (D) HP6 (6-mer) toward secondary 6-mer.
Concentrations of duplexes in A–D are 5 μM in 10 mM […] with 10 mM KCl at pH 7.4.
(also on this page, place not known: Fraction melted Fraction meltedFraction melted Fraction melted) […]
Supplementary Material and methods […]
Biophysical characterization of PNA:PNA duplexes using CD Spectroscopy and […]
Circular dichroism (CD) and UV melts of PNA:PNA duplexes were measured on a CD spectrometer (Applied Photophysics, Leatherhead, UK) with Peltier temperature control and an external temperature probe. […]
from 20°C to 95°C with a 1°C/min temperature gradient. Simultaneously, the UV absorbance at 260 nm was recorded as a function of temperature. Fraction melted data was calculated […]
Fraction melted = 1 ― UVds― UVss , where UVss and UVds are the UV absorbances at 95°C and 20°C, respectively. The melting temperature (Tm) was determined as the maximum of the first derivative of the melting curve and was computed using the Global 3 analysis software (Applied Photophysics, […]
CD spectra in the range of 200–300 nm were recorded for all hybridized PNA:PNA pairs at 20°C before and after the UV melting experiments. […]

Compound	tumor-associated activity [1] [%ID/g]	kd [2]	Tm [3] [°C]
NC(=O)[C@H](Cc1ccc(O)cc1)NC(=O)[C@H](CCC(=O)O)NC(=O)[C@H](CCC(=O)O)NC(=O)CN(CCNC(=O)CN(CCNC(=O)CN(CCNC(=O)CN(CCNC(=O)CN(CCNC(=O)CN(CCNC(=O)CN(CCNC(=O)CN(CCNC(=O)CN(CCNC(=O)[C@H](CO)NC(=O)[C@H](CO)NC(=O)COCCOCCNC(=O)CN1CCN(CC(=O)O)CCN(CC(=O)O)CCN(CC(=O)O)CC1)C(=O)Cn1cnc2c(N)ncnc21)C(=O)Cn1cnc2c(N)ncnc21)C(=O)Cn1ccc(N)nc1=O)C(=O)Cn1cnc2c(N)ncnc21)C(=O)Cn1ccc(N)nc1=O)C(=O)Cn1ccc(N)nc1=O)C(=O)Cn1cnc2c(N)ncnc21)C(=O)Cn1cnc2c(=O)[nH]c(N)nc21)C(=O)Cn1cnc2c(=O)[nH]c(N)nc21 [[^177Lu]Lu-HP16, metal not drawn]	1.91 ± 0.831	–	–
DOTA-AEEA-SS-aacaccagg-EEY-NH2 [HP16, 9-mer secondary PNA probe with DOTA]	–	2.5 × 10^–5 s^–1	73
